Data published in US5066671A, “Ellagic acid derivatives as phospholipase A2 inhibitors” (American Home Products Corporation, priority 1990, dated 1991).

How the values were obtained:
[1] = Derwent Publications 78-88538A; cited from earlier work
[2] = system: paw edema induced by the exogenous administration of PLA2; test: animal or person; format: in vivo, male CD-1 mice; conditions: for ED50 mg/kg p.o. at +10 min. (result in words) / % Change in Edema, 10 min: 10 min after PLA2 injection; for ED50 mg/kg p.o. at +10 min. (result in words): standard drugs; for ED50: Mus musculus, 10 min, read-out: ED50 mg/kg p.o. at +10 min.; for ED50 / ED50 mg/kg p.o. at +10 min.: po; for ED50 mg/kg p.o. at +10 min.: mouse, in vivo; for % Change in Edema, 30 min: 30 min after PLA2 injection; for % Change in Edema, 60 min: 60 min after PLA2 injection
Method: The ability of the compounds of the invention to inhibit paw edema induced by the exogenous administration of PLA2 is measured in the in vivo PLA2 murine paw edema assay.
The assay is carried out as follows:
Non-fasted, male CD-1 mice (8 weeks old; 31-36 grams) are placed in plastic boxes in groups of six. The right hind paw volume is measured using mercury plethysmography (zero time). Compounds are dosed orally (0.5 mL of 0.5% Tween80) 1 or 3 hours prior to PLA2 injection or intravenously (0.2 mL in 0.3% dimethylsulfoxide/saline) 3 minutes prior to PLA2 injection. A solution of purified PLA2, from the diamond back cotton mouth snake (A. piscivorus piscivorus) is prepared in saline at a concentration of 6 μg/mL. Fifty (50) μL (0.3 μg) of this PLA2 solution is injected subcutaneously into the right hind paw with a plastic 1 mL plastic syringe (27 gauge, 1" needle). Paw volume of the injected paw is measured again at 10 minutes, 30 minutes and 60 minutes after PLA2 injection. Animals are euthanized with CO2 at the completion of the study.
The paw edema is calculated by subtracting the zero time volume from the volume recorded at each time period. Mean paw edema for each treatment group is then calculated and expressed as (μL±S.E.). Drug effects are expressed as a percent change from control (vehicle) values. Statistical significance is determined by a oneway analysis of variance with LSD comparison to control (p<0.05). ED50 's are determined using repression analysis.

[3] = system: paw edema induced by the exogenous administration of PLA2; format: in vivo, male CD-1 mice
[4] = system: carrageenan paw edema; test: rat carrageenan paw edema assay; format: in vivo, male Sprague-Dawley rats; conditions: for ED50: Rattus norvegicus, po, 3 h, read-out: Oral ED50 (95% C.L.) mg/kg
Method: The compounds of the invention are tested in the rat carrageenan paw edema assay to determine their ability to inhibit the acute inflammatory response.
(§1) This assay is carried out as follows:
140-180 gm male Sprague-Dawley rats, in groups of 6 animals, are injected subcutaneously in the right paw with 0.1 ml of 1% carrageenan at zero time. Mercury plethysmographic readings (ml) of the paw are made at zero time and 3 hours later. Test compounds are suspended or dissolved in 0.5% methylcellulose and given perorally 1 hour prior to carrageenan administration.
The increase in paw volume (edema in ml) produced by the carrageenan is measured. Paw edema is calculated (3 hour volume minus zero time volume), and percent inhibition of edema is determined. Unpaired Student's t-test is used to determine statistical significance.

[5] = system: Hageman factor; conditions: Ratnoff et al., J. Lab. Clin. Med. 63, 359 (1964); cited from earlier work
[6] = system: synthesis of the arachidonic acid cyclooxygenase oxidation product TxB2; test: inhibition of TxB2 synthesis by rat polymorphonuclear leukocytes (cyclooxygenase activity); format: cell-based; conditions: rat PMN
Method: Rat polymorphonuclear leukocytes (PMNs) are obtained from female Wistar rats (150-200 g) which receive an injection of 6% glycogen (10 ml i.p.). Rats are sacrificed 18-24 hours post injection by CO2 asphyxiation and the elicited cells are harvested by peritoneal lavage using physiological saline (0.9% NaCl). The exudate is centrifuged at 400 xg for 10 minutes. The supernatant fluid is discarded and the cell pellet is resuspended to a concentration of 2.0×10^7 cells/mL in HBSS containing Ca^++ and Mg^++ and 10 μM L-cysteine.
To 1 mL aliquots of cell suspension, test drugs or vehicle are added, then preincubated at 37° C. for 10 minutes. A23187 (1 μM), [^3 H]-AA (3.0 μCi/mL) and unlabeled AA (1 μM) are then added and the samples are further incubated for 10 minutes. The reaction is terminated by centrifugation and pelleting cells. Supernatants are then analyzed by HPLC analysis on a 15 cm×4.6 mm ID supelcosil LC-18 (Supelco)(3M) column, using a two solvent system at a flow rate of 1.4 mL total flow as follows:
In this assay, the procedure of Example 1 is carried out as described. However, in order to determine cyclooxygenase activity, the samples are cochromatographed with authentic reference [^3 H]-TxB2.
The results are calculated as in Example 1 and presented below: […]

[7] = target: T1, Human Synovial PLA2 (Homo sapiens, UniProt P14555); test: in vitro isolated phospholipase A2 assay, human synovial fluid PLA2; format: biochemical; conditions: for IC50: compounds of the invention, read-out: IC50 HSF (human synovial fluid)
T1 construct: Purified human synovial fluid; from tissue; host or cells: human synovial fluid (purified)
T1 sequence (P14555 21-144): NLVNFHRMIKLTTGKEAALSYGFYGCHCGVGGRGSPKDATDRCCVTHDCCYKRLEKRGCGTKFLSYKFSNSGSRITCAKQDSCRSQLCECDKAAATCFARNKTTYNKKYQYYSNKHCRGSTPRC
Method: (§2) The compounds of the invention are tested in an in vitro isolated phospholipase A2 assay to determine the ability of the test compounds to inhibit the release of arachidonic acid from an arachidonic acid-containing substrate by the action of phospholipase A2 enzyme from human and non-human sources.
as §1
(§3) Into a 15 mL polypropylene tube are added the following:
(§4) ^3 H-AA E.coli substrate^1
(§5) PLA2 25 Volume yielding 12%
(§6) 100 hydrolysis in 10 min.
(§7) *pre-incubate at room temperature 30 min prior to substrate addition.
(§8) ^5 Stock 10 mM prepared in dimethyl sulfoxide. Make 1:2 dilution with
(§9) dimethyl sulfoxide and add 1 μL to 100 μL assay tube.
(§10) ^ 6 Two human PLA2 enzymes are used: (a) Semipurified human
(§11) platelet acid extract PLA2 (in 10 mM sodium acetate buffer, pH 4.5).
(§12) Remove protein precipitate by centrifugation at about 2200 rpm for 10
(§13) minutes. (b) Purified human synovial fluid.
(§14) Incubate the 100 μL reaction mixture for 10 minutes at 37° C. in a shaking water bath. The reaction is terminated by the addition of 2 mL tetrahydrofuran, followed by vortexing. NH2 columns (100 μg/mL-Analytichem International) are conditioned with 0.5 mL tetrahydrofuran followed by 0.5 mL tetrahydrofuran/water (2 mL:0.1 mL, v/v).
(§15) The sample is loaded onto the columns and slowly drawn through them. The hydrolyzed arachidonic acid retained in the columns is eluted therefrom with 1 mL tetrahydrofuran/glacial acetic acid (2%). The arachidonic acid is transferred to scintillation vials and quantitated by β-counting analysis. A "total counts" sample is prepared by pipetting 25 μL ^3 H-arachidonate E. coli directly into a scintillation vial to which is added 1 mL tetrahydrofuran. 10 mL aquasol (scintillation cocktail) is added to all samples. [formula]

[8] = target: T2, Human Platelet PLA2 (Homo sapiens, UniProt P14555); test: in vitro isolated phospholipase A2 assay, human platelet PLA2; format: biochemical
T2 construct: platelet acid extract PLA2; from tissue; host or cells: human platelets (semipurified acid extract)
T2 sequence (P14555 21-144): T1 sequence (P14555 21-144)
Method: as §2, §1, §3, §4, §5, §6, §7, §8, §9, §10, §11, §12, §13, §14, §15

[9] = system: synthesis of LTB4 by rat glycogen-elicited polymorphonuclear leukocytes; test: inhibition of LTB4 synthesis by rat glycogen-elicited polymorphonuclear leukocytes (PMN); format: cell-based; conditions: Leukocyte
Method: Accordingly, the specificity of action of PLA2 inhibitors can be determined by the activity of test compounds in this assay, which measures the ability of compounds to inhibit the synthesis of LTB4 by rat glycogen-elicited polymorphonuclear leukocytes (PMN) in the presence of exogenous substrate.
To 1 mL aliquots of cell suspension, test drugs or vehicle are added, then preincubated at 37° C. for 10 minutes. A23187 (1 μM), [^3 H]-AA (3.0 μCi/mL) and unlabeled AA (1 μM) are then added and the samples are further incubated for 10 minutes. […]
Injections: 140 μL of each supernatant is injected directly onto column and ^3 H arachidonic acid metabolites are monitored using an on-line radioactivity detector (Ramona, IN/US, Fairfield, NJ). […]
Results are expressed as percent inhibition at a given compound dose.

COc1c(O)cc2c(=O)oc3c(OC)c(O)cc4c(=O)oc1c2c34 [3,3'dimethyl ellagic acid]
antitumor activity [1]: antitumor activity

COc1cccc2c1cc([N+](=O)[O-])c1c(C(=O)O)cc3c(c12)OCO3 [Aristolochic Acid, reference compound]
ED50 mg/kg p.o. at +10 min. (result in words) [2]: Not Active | inhibition only when coinjected with enzyme [3]: 30%

CC(=O)Oc1ccccc1C(=O)O [Aspirin]
ED50 [4]: 145 mg/kg

NC1=NN(c2cccc(C(F)(F)F)c2)CC1 [BW755C, reference compound]
ED50 [2]: 50 mg/kg

CN1CCC(=C2c3ccccc3C=Cc3ccccc32)CC1 [Cyproheptadine, reference compound]
ED50 [2]: 3.1 mg/kg

C[C@@H]1C[C@H]2[C@@H]3CCC4=CC(=O)C=C[C@]4(C)[C@@]3(F)[C@@H](O)C[C@]2(C)[C@@]1(O)C(=O)CO [Dexamethasone, reference compound]
ED50 mg/kg p.o. at +10 min. [2]: 10 mg/kg

O=c1oc2c(O)c(O)cc3c(=O)oc4c(O)c(O)cc1c4c23 [Example 1, 4, 4', 5, 5', 6, 6'-hexahydrodiphenic acid 2,6, 2', 6'-dilactone]
% Change in Edema, 10 min ([2]; 10 mg/kg i.v.): -22% | % Change in Edema, 30 min ([2]; 10 mg/kg i.v.): -64% | % Change in Edema, 60 min ([2]; 10 mg/kg i.v.): -18% | % Change in Edema, 10 min ([2]; 100 mg/kg p.o.): -35% | % Change in Edema, 30 min ([2]; 100 mg/kg p.o.): +4% | % Change in Edema, 60 min ([2]; 100 mg/kg p.o.): -73% | ability to activate Hageman factor [5]: ability to activate Hageman factor | inhibition at 10 µM ([6]; Leukocyte): 4% | % Inhibition at 50 mg/kg (peroral) ([4]; 50 mg/kg peroral, 1 hour prior to carrageenan, edema at 3 hours): 37% | % Inhibition, HSF (human synovial fluid) ([7]; at 50 μM (footnote +), 50 µM): 89.5% | inhibition at 50 µM ([7]; at 50 μM (footnote +), read-out: % Inhibition, HSF (human synovial fluid)): 86.5% | IC50 [7]: 0.021 µM | inhibition at 50 µM ([8]; at 50 μM (footnote +), read-out: % Inhibition, HP (human platelet)): 38.8% | inhibition at 10 µM [9]: 39%

CC(=O)Oc1cc2c(=O)oc3c(OC(C)=O)c(OC(C)=O)cc4c(=O)oc(c1OC(C)=O)c2c34 [Example 2, Ellagic Acid Tetraacetate]
inhibition at 10 µM ([7]; read-out: % Inhibition at 10 μM, HSF (human synovial fluid)): 90.7% | inhibition at 10 µM ([8]; read-out: % Inhibition at 10 μM, HP (human platelet)): -16.6% | inhibition at 10 µM [9]: -31%

COc1ccc2c(c1)c(CC(=O)O)c(C)n2C(=O)c1ccc(Cl)cc1 [Indomethacin]
ED50 [4]: 3.7 mg/kg

COc1ccc2cc([C@H](C)C(=O)O)ccc2c1 [Naproxen, reference compound]
ED50 mg/kg p.o. at +10 min. [2]: 18 mg/kg

Ellagic Acid Diacetate [Example 3]
% Inhibition (TxB2 synthesis) ([6]; at 10 μM): 9% | % Inhibition at 10 μM, HSF (human synovial fluid) ([7]; at 10 μM): 95.6% | IC50 [7]: 0.36 µM | % Inhibition at 10 μM, HP (human platelet) ([8]; at 10 μM): 0%

Luffarrellolide [reference compound]
ED50 mg/kg p.o. at +10 min. (result in words) [2]: Not Active | inhibition only when coinjected with enzyme [3]: 30%
